One experiment concerns the target T1, TRα (Homo sapiens, UniProt P10827).
T1 construct: expressed in transfected cells; host or cells: HEK293
T1 sequence (P10827 1-410 isoform P10827-2): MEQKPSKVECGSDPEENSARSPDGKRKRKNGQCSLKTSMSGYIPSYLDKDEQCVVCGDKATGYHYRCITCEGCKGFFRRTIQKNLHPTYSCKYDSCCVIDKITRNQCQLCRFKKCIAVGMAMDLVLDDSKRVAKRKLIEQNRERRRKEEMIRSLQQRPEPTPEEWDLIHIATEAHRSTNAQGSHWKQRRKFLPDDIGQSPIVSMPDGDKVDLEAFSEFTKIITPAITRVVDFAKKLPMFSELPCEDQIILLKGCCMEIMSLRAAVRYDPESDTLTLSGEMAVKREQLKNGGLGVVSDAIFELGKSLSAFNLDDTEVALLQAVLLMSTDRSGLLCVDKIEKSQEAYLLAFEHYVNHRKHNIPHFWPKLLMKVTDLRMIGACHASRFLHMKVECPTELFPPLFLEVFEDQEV
In words: TR reporter-gene assay (Gal4 DBD hybrid, luciferase), TRα. The format is cell-based. Conditions: HEK293-derived reporter cells, 24 hr treatment; read-out: TRα EC50. The procedure: (§1) Compounds were tested for thyroid-hormone receptor activity using TR reporter-gene assays. Reporter cells used in the assays express a TR-receptor hybrid (either TRα or TRβ) in which the native N-terminal DNA binding domain (DBD) has been replaced with that of the yeast Gal4 DBD. The reporter gene, firefly luciferase, is functionally linked to the Gal4 upstream activation sequence (UAS). Both cell lines were derived from human embryonic kidney (HEK293).
(§2) Step 1: A suspension of reporter cells was prepared in cell recovery medium containing 10% charcoal-stripped FBS, and dispensed into assay plates. The plates were pre-incubated for 6 hours in a cell culture incubator (37° C./5% CO2/85% humidity).
(§3) These intermediate stocks were subsequently diluted directly into compound screening medium containing 10% charcoal-stripped FBS to generate “2×-concentration” treatment media (containing 0.2, 0.4 or 0.8% DMSO).
(§4) Step 3: At the end of the pre-incubation period, culture media were discarded from the assay plates, and all wells received 100 μl of compound screening medium. 100 μl of each of the previously prepared “2×-concentration” treatment media were dispensed into duplicate assay wells, thereby achieving the desired final treatment concentrations. The final concentration of DMSO in all assay wells was 0.1, 0.2 or 0.4%. Assay plates were incubated for 24 hr in a cell culture incubator (37° C./5% CO2/85% humidity).
(§5) Step 4: At the 24 h assay endpoint, treatment media were discarded and 100 µl/well of luciferase detection reagent was added. Relative luminometer units (RLUs) were quantified from each assay well.

For a further experiment, the target named is T2, TRβ (Homo sapiens, UniProt P10828).
T2 construct: expressed in transfected cells; host or cells: HEK293
T2 sequence (P10828 217-461 limits assumed): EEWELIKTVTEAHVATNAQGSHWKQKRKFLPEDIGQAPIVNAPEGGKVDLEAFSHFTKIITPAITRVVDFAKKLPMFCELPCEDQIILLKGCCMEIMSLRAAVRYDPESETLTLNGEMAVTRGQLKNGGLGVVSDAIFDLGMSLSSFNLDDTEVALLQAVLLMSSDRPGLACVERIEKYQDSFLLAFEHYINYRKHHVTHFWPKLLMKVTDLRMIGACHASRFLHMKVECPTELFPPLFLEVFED
Put plainly: TR reporter-gene assay (Gal4 DBD hybrid, luciferase), TRβ. The format is cell-based. Conditions: for EC50: HEK293-derived reporter cells, 24 hr treatment, read-out: TRβ EC50; for T3-SI (selectivity index, EC50 (TRα)/EC50 (TRβ)): class symbols. As for the experimental part:
as §1, §2, §3, §4, §5

These results are taken from patent publication US12528761B2, “Thyromimetics” (Autobahn Therapeutics, Inc., priority 2020, dated 2026).

SMILES strings stand for the structures. A value given as a limit tells only on which side of the number the result lay.

As to `CC(C)c1cc(Cc2c(Cl)cc(CC(N)C(=O)O)cc2Cl)ccc1O` (stereo not shown) [Compound 143, 2-amino-3-(3,5-dichloro-4-(4-hydroxy-3-isopropylbenzyl)phenyl)propanoic acid], the EC50 at TRα and at TRβ was 0.01 to 0.1 µM throughout. Also, the “T3-SI (selectivity index, EC50 (TRα)/EC50 (TRβ))” value on TRβ was “+ (T3-SI ≤ 3×)”.

Turning to `Cc1cc(CCC(=O)O)cc(Cl)c1Cc1ccc(O)c(C(C)C)c1F` [Compound 249, 3-(3-chloro-4-(2-fluoro-4-hydroxy-3-isopropylbenzyl)-5-methylphenyl)propanoic acid], the EC50 (in general, the concentration giving half of the maximal effect) at TRα lay within 0.01 to 0.1 µM. On TRβ, the EC50 fell in the range of 0.01 to 0.1 µM and the “T3-SI (selectivity index, EC50 (TRα)/EC50 (TRβ))” value was “++ (3× < T3-SI ≤ 30×)”.

Regarding `CC(C)c1cc(Cc2c(Cl)cc(CCC(=O)O)cc2Cl)ccc1O` [Compound 11, 3-(3,5-dichloro-4-(4-hydroxy-3-isopropylbenzyl)phenyl)propanoic acid], the EC50 on TRα fell in the range of 0.01 to 0.1 µM. Further, on TRβ, the EC50 lay in the range of 0.01 to 0.1 µM and the “T3-SI (selectivity index, EC50 (TRα)/EC50 (TRβ))” value is “++ (3× < T3-SI ≤ 30×)”.

On to `CC(C)c1cc(Cc2c(Cl)cc(S(=O)(=O)CC(=O)O)cc2Cl)ccc1O` [Compound 93, 2-((3,5-dichloro-4-(4-hydroxy-3-isopropylbenzyl)phenyl)sulfonyl)acetic acid], for which the 50% effective concentration (EC50) at TRα and on TRβ was above 1 µM throughout. At TRβ, the “T3-SI (selectivity index, EC50 (TRα)/EC50 (TRβ))” value was “++ (3× < T3-SI ≤ 30×)”.

As to `CC(C)c1cc(Cc2c(Cl)cc(CCC(=O)O)c(F)c2Cl)ccc1O` [Compound 65, 3-(3,5-dichloro-2-fluoro-4-(4-hydroxy-3-isopropylbenzyl)phenyl)propanoic acid], the EC50 at TRα lay within 0.01 to 0.1 µM. In addition, on TRβ, the EC50 lay in the range of 0.01 to 0.1 µM and the “T3-SI (selectivity index, EC50 (TRα)/EC50 (TRβ))” value is “++ (3× < T3-SI ≤ 30×)”.

As for `CC(C)c1cc(Cc2c(Cl)cc(CNCC(=O)O)c(F)c2Cl)ccc1O` [Compound 152, (3,5-dichloro-2-fluoro-4-(4-hydroxy-3-isopropylbenzyl)benzyl)glycine], the EC50 on TRα is 0.1 to 1 µM. In addition, on TRβ, the EC50 lay in the range of 0.1 to 1 µM and the “T3-SI (selectivity index, EC50 (TRα)/EC50 (TRβ))” value was “++ (3× < T3-SI ≤ 30×)”.

In the case of `CC(C)c1cc(Cc2c(Cl)cc(OC(F)(F)C(=O)O)cc2Cl)ccc1O` [Compound 82, 2-(3,5-dichloro-4-(4-hydroxy-3-isopropylbenzyl)phenoxy)-2,2-difluoroacetic acid], on TRα, the EC50 was above 1 µM. At TRβ, the EC50 fell in the range of 0.1 to 1 µM and the “T3-SI (selectivity index, EC50 (TRα)/EC50 (TRβ))” value was “++ (3× < T3-SI ≤ 30×)”.

`CC(C)c1cc(Cc2c(Cl)cc([S+]([O-])CC(=O)O)cc2Cl)ccc1O` (stereo not shown) [Compound 92, 2-((3,5-dichloro-4-(4-hydroxy-3-isopropylbenzyl)phenyl)sulfinyl)acetic acid]: at TRα, the EC50 is above 1 µM. Besides, at TRβ, the half-maximal effective concentration (EC50) was above 1 µM and the “T3-SI (selectivity index, EC50 (TRα)/EC50 (TRβ))” value was “+++ (T3-SI > 30×)”.

For `CC(C)c1cc(Cc2c(Cl)cc(C[S+]([O-])CC(=O)O)cc2Cl)ccc1O` (stereo not shown) [Compound 210, 2-((3,5-dichloro-4-(4-hydroxy-3-isopropylbenzyl)benzyl)sulfinyl)acetic acid], on TRα, the EC50 was above 1 µM. Moreover, at TRβ, the EC50 was above 1 µM and the “T3-SI (selectivity index, EC50 (TRα)/EC50 (TRβ))” value was “++ (3× < T3-SI ≤ 30×)”.

With `Cc1cc(SCC(=O)O)cc(Cl)c1Cc1ccc(O)c(C(C)C)c1` [Compound 123, 2-((3-chloro-4-(4-hydroxy-3-isopropylbenzyl)-5-methylphenyl)thio)acetic acid], the EC50 at TRα and on TRβ was 0.1 to 1 µM each time. In addition, the “T3-SI (selectivity index, EC50 (TRα)/EC50 (TRβ))” value at TRβ is “++ (3× < T3-SI ≤ 30×)”.

Turning to `CC(C)c1c(O)ccc(Cc2c(Cl)cc(C(=O)O)cc2Cl)c1F` [Compound 61, 3,5-dichloro-4-(2-fluoro-4-hydroxy-3-isopropylbenzyl)benzoic acid], the EC50 on TRα is above 1 µM. On TRβ, the concentration for a half-maximal effect (EC50) was above 1 µM and the “T3-SI (selectivity index, EC50 (TRα)/EC50 (TRβ))” value is “++ (3× < T3-SI ≤ 30×)”.

Regarding `Cc1cc(CNCC(=O)O)cc(Cl)c1Cc1ccc(O)c(C(C)C)c1` [Compound 251, (3-chloro-4-(4-hydroxy-3-isopropylbenzyl)-5-methylbenzyl)glycine], the EC50 on TRα is 0.1 to 1 µM; at TRβ, above 1 µM. Further, the “T3-SI (selectivity index, EC50 (TRα)/EC50 (TRβ))” value on TRβ is “+ (T3-SI ≤ 3×)”.

Regarding `CC(C)c1c(O)ccc(Cc2c(Cl)cc(SCC(=O)O)cc2Cl)c1F` [Compound 203, 2-((3,5-dichloro-4-(2-fluoro-4-hydroxy-3-isopropylbenzyl)phenyl)thio)acetic acid], the EC50 at TRα was 0.01 to 0.1 µM. At TRβ, the EC50 lay within 0.01 to 0.1 µM and the “T3-SI (selectivity index, EC50 (TRα)/EC50 (TRβ))” value is “++ (3× < T3-SI ≤ 30×)”.

`CC(C)c1c(O)ccc(Cc2c(Cl)cc(/C=C/C(=O)O)cc2Cl)c1F` [Compound 88, (E)-3-(3,5-dichloro-4-(2-fluoro-4-hydroxy-3-isopropylbenzyl)phenyl)acrylic acid]: the EC50 on TRα and at TRβ was below 0.01 µM each time. In addition, the “T3-SI (selectivity index, EC50 (TRα)/EC50 (TRβ))” value on TRβ was “+ (T3-SI ≤ 3×)”.

With `CC(C)c1cc(Cc2c(Cl)cc(CC3NC(=O)NC3=O)cc2Cl)ccc1O` (stereo not shown) [Compound 144, 5-(3,5-dichloro-4-(4-hydroxy-3-isopropylbenzyl)benzyl)imidazolidine-2,4-dione], the half-maximal effective concentration (EC50) on TRα fell in the range of 0.1 to 1 µM. Besides, at TRβ, the concentration for a half-maximal effect (EC50) is above 1 µM and the “T3-SI (selectivity index, EC50 (TRα)/EC50 (TRβ))” value is “+ (T3-SI ≤ 3×)”.

For `CC(C)c1cc(Cc2c(Cl)cc(NCC(=O)O)cc2Cl)ccc1O` [Compound 20, (3,5-dichloro-4-(4-hydroxy-3-isopropylbenzyl)phenyl)glycine], the EC50 on TRα is 0.01 to 0.1 µM. Moreover, on TRβ, the EC50 was in the range of 0.01 to 0.1 µM and the “T3-SI (selectivity index, EC50 (TRα)/EC50 (TRβ))” value is “++ (3× < T3-SI ≤ 30×)”.

As to `CC(C)c1c(O)ccc(Cc2c(Cl)cc(OCCCC(=O)O)cc2Cl)c1F` [Compound 52, 4-(3,5-dichloro-4-(2-fluoro-4-hydroxy-3-isopropylbenzyl)phenoxy)butanoic acid], on TRα, the EC50 lay in the range of 0.1 to 1 µM. Besides, at TRβ, the EC50 lay in the range of 0.1 to 1 µM and the “T3-SI (selectivity index, EC50 (TRα)/EC50 (TRβ))” value was “+ (T3-SI ≤ 3×)”.

As to `CC(C)c1cc(Cc2c(Cl)cc(C(CC(=O)O)C(=O)O)cc2Cl)ccc1O` (stereo not shown) [Compound 142, 2-(3,5-dichloro-4-(4-hydroxy-3-isopropylbenzyl)phenyl)succinic acid], the EC50 on TRα was above 1 µM.

In the case of `CC(=O)NOCc1cc(Cl)c(Cc2ccc(O)c(C(C)C)c2F)c(Cl)c1` [Compound 211, N-((3,5-dichloro-4-(2-fluoro-4-hydroxy-3-isopropylbenzyl)benzyl)oxy)acetamide], the half-maximal effective concentration (EC50) on TRα was in the range of 0.1 to 1 µM.

On to `O=C(O)CNc1cc(Cl)c(Cc2ccc(O)c(-c3cc(OC(F)F)ccc3F)c2F)c(Cl)c1` [Compound 139, (3,5-dichloro-4-((5′-(difluoromethoxy)-2,2′-difluoro-6-hydroxy-[1,1′-biphenyl]-3-yl)methyl)phenyl)glycine], for which the EC50 at TRα lay within 0.01 to 0.1 µM.

With `O=C(O)Cc1cc(Cl)c(Cc2ccc(O)c(CN3CCCC3=O)c2)c(Cl)c1` [Compound 138, 2-(3,5-dichloro-4-(4-hydroxy-3-((2-oxopyrrolidin-1-yl)methyl)benzyl)phenyl)acetic acid], the EC50 at TRα was above 1 µM.

On to `CC(C)c1c(O)ccc(Cc2c(Cl)cc(N(C)CC(=O)O)cc2Cl)c1F` [Compound 140, N-(3,5-dichloro-4-(2-fluoro-4-hydroxy-3-isopropylbenzyl)phenyl)-N-methylglycine], for which the EC50 at TRα was above 1 µM.

For the molecule `CC(C)c1c(O)ccc(Cc2c(Cl)cc(NC(=O)C(=O)O)cc2Cl)c1F` [Compound 63, 2-((3,5-dichloro-4-(2-fluoro-4-hydroxy-3-isopropylbenzyl)phenyl)amino)-2-oxoacetic acid], on TRβ, the “T3-SI (selectivity index, EC50 (TRα)/EC50 (TRβ))” value is “++ (3× < T3-SI ≤ 30×)”.

`O=C(O)Cc1cc(Cl)c(Cc2ccc(O)c(C(=O)N3CCCCC3)c2)c(Cl)c1` [Compound 137, 2-(3,5-dichloro-4-(4-hydroxy-3-(piperidine-1-carbonyl)benzyl)phenyl)acetic acid]: the EC50 at TRβ is above 1 µM.
